Literature values, collected in patent publication US20220117915A1, “METHODS OF TREATING ACUTE STRESS DISORDER AND POSTTRAUMATIC STRESS DISORDER” (Tonix Pharma Holdings Limited, priority 2018, published 2022).
Each block holds one compound with its values, some of them ahead of it.

Legend:
[1] = target: serotonergic-2A (5-HT2A) receptor (Homo sapiens, UniProt P28223)
[2] = target: alpha-adrenergic-1A (α1A) receptor (Homo sapiens, UniProt P35348)
[3] = ASD or very early PTSD

Sequence of alpha-adrenergic-1A (α1A) receptor (P35348 whole entry): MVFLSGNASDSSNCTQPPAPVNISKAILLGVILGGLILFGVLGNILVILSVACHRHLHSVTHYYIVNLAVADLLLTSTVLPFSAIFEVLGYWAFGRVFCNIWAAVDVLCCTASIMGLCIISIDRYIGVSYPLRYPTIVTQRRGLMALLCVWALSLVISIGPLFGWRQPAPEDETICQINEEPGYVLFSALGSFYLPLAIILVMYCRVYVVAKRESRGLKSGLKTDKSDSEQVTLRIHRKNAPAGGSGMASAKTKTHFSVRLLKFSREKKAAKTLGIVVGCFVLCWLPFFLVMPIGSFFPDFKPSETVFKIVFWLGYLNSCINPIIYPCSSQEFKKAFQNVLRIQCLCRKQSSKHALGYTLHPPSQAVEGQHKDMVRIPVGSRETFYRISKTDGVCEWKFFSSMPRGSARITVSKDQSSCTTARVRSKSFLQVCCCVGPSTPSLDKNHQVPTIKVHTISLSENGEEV
Sequence of serotonergic-2A (5-HT2A) receptor (P28223 whole entry, species assumed): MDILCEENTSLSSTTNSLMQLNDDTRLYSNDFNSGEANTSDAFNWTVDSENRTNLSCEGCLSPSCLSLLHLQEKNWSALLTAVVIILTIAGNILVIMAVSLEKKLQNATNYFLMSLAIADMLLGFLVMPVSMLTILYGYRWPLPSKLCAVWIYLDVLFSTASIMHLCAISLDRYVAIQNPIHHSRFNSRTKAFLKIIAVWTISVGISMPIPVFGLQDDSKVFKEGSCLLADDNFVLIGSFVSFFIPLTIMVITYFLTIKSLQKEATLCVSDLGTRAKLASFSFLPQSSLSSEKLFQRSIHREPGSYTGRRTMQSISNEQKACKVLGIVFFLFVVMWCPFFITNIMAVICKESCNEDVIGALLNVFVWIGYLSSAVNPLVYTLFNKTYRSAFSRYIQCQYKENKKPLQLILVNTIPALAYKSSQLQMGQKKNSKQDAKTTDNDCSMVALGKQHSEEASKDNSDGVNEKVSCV

- 5-HT2A receptor antagonist activity [1]: potent
- α1A receptor antagonist activity [2]: potent
Structure (SMILES): CN(C)CCC=C1c2ccccc2C=Cc2ccccc21 [Cyclobenzaprine, 3-(5H-dibenzola[a,d]cyclohepten-5-ylidene)-N,N-dimethyl-1 propanamine]

Structure (SMILES): CN(C)CCC[C@@]1(c2ccc(F)cc2)OCc2cc(C#N)ccc21 [escitalopram]
- preventing development of PTSD versus placebo [3]: failed to perform any better than the placebo

Structure (SMILES): Fc1ccc([C@@H]2CCNC[C@H]2COc2ccc3c(c2)OCO3)cc1 [paroxetine]
- efficacy as a PTSD treatment (long-standing PTSD, average of 15 years since the trauma): offered patients with long-standing PTSD relief
- improvement by time since trauma (trauma more than 5 years prior to treatment versus more recent trauma): greater improvement
